Measured values from US20230274799A1, “SYSTEMS AND METHODS FOR PATIENT STRATIFICATION AND IDENTIFICATION OF POTENTIAL BIOMARKERS” (Berg LLC, priority 2016, published 2023).

What was measured:
[1] = Phase I trial, adverse events (CTCAE v4.02); format: in vivo, human
Source text: The study is a standard 3+3 dose escalation design with the dose escalated in successive cohorts of 3 to 6 patients each. Toxicity at each dose level is graded according to National Cancer Institute Common Terminology Criteria for Adverse Events (CTCAE v4.02). Safety oversight is provided by the Cohort Review Committee (CRC). If none of the 3 patients in a cohort experiences a DLT during Cycle 1, then 3 new patients may be entered at the next higher dose level following CRC review of safety and PK data from lower cohorts. The clinical trial is described in greater detail in WO2015/035094, which is incorporated by reference herein in its entirety.
Four grade 3 events were reported. During the time period covered by Example 1, 1503 adverse events were reported. 75 events were reported as serious. Of the serious adverse events, 27 were not related, 38 were unlikely related, 8 were possibly related, one was probably related and, one was definitely related (activated partial thromboplastin time (APTT) prolonged).
The table below contains the adverse events reported with a frequency of 4% or greater.

solid tumors = experiment: Tumor response evaluation in Phase I trial; format: in vivo, human; details: Sixteen of 66 patients
Method: Tumor response was evaluated at week 2 and then after every 2 cycles. Sixteen of 66 patients (24%) maintained a minimum of Stable Disease for >4 cycles. Tumor response data was used to stratify the patients into “overall clinical benefit” or “no clinical benefit” groups.

[2] = Grade 2, 3*, adverse events with frequency of 4% or greater
[3] = time period covered by Example 1

COC1=C(OC)C(=O)C(C/C=C(\C)CC/C=C(\C)CC/C=C(\C)CC/C=C(\C)CC/C=C(\C)CC/C=C(\C)CC/C=C(\C)CC/C=C(\C)CC/C=C(\C)CCC=C(C)C)=C(C)C1=O [Coenzyme Q10]
Anemia, Number of Occurrences ([1]; Grade 2, 3): 38
Anemia, Percentage of Occurrences ([1]; Grade 2, 3): (15%)
Elevated AST, Number of Occurrences ([1]; Grade 2, 3): 14
Elevated AST, Percentage of Occurrences ([1]; Grade 2, 3): (6%)
Fatigue, Number of Occurrences ([1]; Grade 2, 3): 11
Fatigue, Percentage of Occurrences ([1]; Grade 2, 3): (4%)
Elevated PT/PTT/INR, Number of Occurrences [1, 2]: 67
Elevated PT/PTT/INR, Percentage of Occurrences [1, 2]: (26%)
Thrombocytopenia, Number of Occurrences ([1]; Grade 2, 3, 4*): 34
Thrombocytopenia, Percentage of Occurrences ([1]; Grade 2, 3, 4*): (13%)
Hypertriglyceridemia, Number of Occurrences ([1]; Grade 2, 4*): 15
Hypertriglyceridemia, Percentage of Occurrences ([1]; Grade 2, 4*): (6%)
Number of grade 3 PT/PTT/INR prolongation events reported ([1]; in vivo): Four
Most common related adverse events ([1]; mitigated after Vitamin K administration): grade 1-2 prothrombin time (PT)/partial thromboplastin time(PTT)/International Normalized Ratio (INR) prolongation
Serious adverse events not related ([1]; of 75 serious events): 27
Serious adverse events possibly related ([1]; of 75 serious events): 8
Serious adverse events probably related ([1]; of 75 serious events): one
Serious adverse events unlikely related ([1]; of 75 serious events): 38
Serious adverse events definitely related ([1]; of 75 serious events, activated partial thromboplastin time (APTT) prolonged): one
Number of adverse events reported [1, 3]: 1503
Number of events reported as serious [1, 3]: 75
Patients who maintained a minimum of Stable Disease for >4 cycles (solid tumors): 24%
